Here are results for 19 compounds from US10913738B2 (BRISTOL-MYERS SQUIBB COMPANY, priority 2017, dated 2021).

Like-named read-outs stand apart in the source and are kept apart here.

The target of assay [1] is T1, His-GST-TVMV-hRIPK1(1-324) (Homo sapiens, UniProt Q13546).
T1 construct: The coding region of human RIPK1(1-324) flanked by NdeI site at 5′ end; made in house; host or cells: Spodoptera frugiperda (Sf9) insect cells, baculovirus
T1 sequence (Q13546 1-324): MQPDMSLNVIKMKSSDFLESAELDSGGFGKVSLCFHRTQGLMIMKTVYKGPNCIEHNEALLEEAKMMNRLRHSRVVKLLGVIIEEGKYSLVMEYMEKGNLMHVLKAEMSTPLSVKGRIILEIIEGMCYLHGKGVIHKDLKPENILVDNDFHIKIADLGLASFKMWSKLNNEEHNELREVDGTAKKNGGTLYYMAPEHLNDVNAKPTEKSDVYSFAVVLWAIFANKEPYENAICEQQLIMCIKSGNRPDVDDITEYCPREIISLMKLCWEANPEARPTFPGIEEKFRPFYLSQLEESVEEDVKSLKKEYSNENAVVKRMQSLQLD
Description: RIPK1 HTRF Binding Assay. The method, then: The plate was incubated at rt for 1 h.
Cloning and Baculovirus Expression of RIPK1 Construct
Baculovirus was generated for the construct using the Bac-to-Bac baculovirus expression system (Invitrogen) according to the manufacturer's protocol. Briefly, recombinant bacmid was isolated from transformed DH10Bac E. coli competent cells (Invitrogen) and used to transfect Spodoptera frugiperda (Sf9) insect cells (Invitrogen). Baculovirus was harvested 72 hours post transfection and a virus stock was prepared by infecting fresh Sf9 cells at a 1/1000 (v/v) ratio for 66 hours.
The production was carried out either at a 10 L scale in a 22 L cellbag (GE Healthcare Bioscience, Pittsburgh, Pa.) or at a 20 L scale in a 50 L cellbag using WAVE-Bioreactor System 20/50 (GE Healthcare Bioscience). The infected cells were harvested by centrifugation at 2000 rpm for 20 min at 4° C. in a SORVALL® RC12BP centrifuge. The cell pellets was stored at −70° C. before protein was purified.
RIPK1 containing cell paste was resuspended in 50 mM Tris pH 7.5, 150 mM NaCl, 10 mM imidazole, 5% glycerol, 5 mM MgSO4, 1 mM TCEP, 25 U/ml Benzonase, and Complete Protease Inhibitor tablets (1/50 ml, Roche Diagnostics, Indianapolis, Ind.). […] The suspension was clarified by centrifugation at 136,000×g for 40 min, at 4° C. The lysate was decanted from the pellet and passed through a 5 ml NiNTA Superflow cartridge (Qiagen, Valencia, Calif.) using an AKTA Pure (GE Healthcare). Column was eluted with 10 CV linear gradient into 50 mM Tris 7.5, 150 mM NaCl, 500 mM imidazole, 5% glycerol, 1 mM TCEP. Peak fractions were pooled and loaded directly onto 5 ml GSTrap 4B column (GE Healthcare). Column was washed with 50 mM Tris 7.0, 150 mM NaCl, 5% glycerol, 1 mM DTT and eluted in 10 CV linear gradient into 50 mM Tris 8.0, 150 mM NaCl, 20 mM reduced glutathione, 5% glycerol, 1 mM DTT. Fractions identified by SDS-PAGE as containing RIPK1 were pooled and concentrated using 30 kDa MWCO spin concentrators (Amicon Ultra-15, Millipore, Billerica, Mass.) and loaded onto a HiLoad 26/600 Superdex 200 column (GE Healthcare) equilibrated in 25 mM Tris 7.5, 150 mM NaCl, 2 mM TCEP, 5% glycerol.
Protein was aliquoted and stored at −80° C.
A general note: Time-resolved FRET reads energy transfer from a long-lived donor to a nearby acceptor.

In assay [2] the test system is MLKL phosphorylation in HT29-L23 human colorectal adenocarcinoma cells. Briefly: MLKL Phosphorylation High-Content Assay. The class given is cell-based. The method, then:
MLKL Phosphorylation High-Content Assay
Following six hours incubation at 37° C. […] MLKL phosporylation was detected using anti-MLKL (phospho S358) antibody (Abcam #ab187091) (1:1000 dilution in Blocking Buffer [PBS supplemented with 0.1% BSA]) with overnight incubation at 4° C. […] Following another three cycles of washes in PBS, the microplates were sealed, and cellular images were acquired in the Cellomics ArrayScan VTI high-content imager equipped with an X1 camera. […] The image sets were analyzed using the Compartmental Analysis Bioapplication software (Cellomics). The level of MLKL phosphorylation was quantified as MEAN CircRingAvgIntenRatio. […] The data were fitted using the 4-parameter logistic equation to calculate the IC50 and Ymax values.

Setting [3] is: x marks IC50 class <20 nM, read-out: RIPK1 HTRF binding <20 nM.
[4] abbreviates: Homo sapiens, x marks IC50 class <20 nM, read-out: pMLKL cell activity <20 nM.
Setting [5] is: Homo sapiens, x marks IC50 class 20-200 nM, read-out: pMLKL cell activity 20-200 nM.
[6] abbreviates: Homo sapiens, x marks IC50 class >200 nM, read-out: pMLKL cell activity >200 nM.
The mark [7] stands for this setting: x marks IC50 class 20-200 nM, read-out: RIPK1 HTRF binding 20-200 nM.

Turning to `COc1nc(C)c(-c2ccn3nc(N)nc3c2)cc1C(=O)NCc1ccccc1OC(C)C` [Example 212, 5-{2-amino-[1,2,4]triazolo[1,5-a]pyridin-7-yl}-2-methoxy-6-methyl-N-{[2-(propan-2-yloxy)phenyl]methyl}pyridine-3-carboxamide], the IC50 in assay [1] (setting [3]) and in assay [2] (setting [4]) was < 20 nM each time.

In the case of `[2H]C([2H])(NC(=O)c1cc(-c2ccn3nc(N)nc3c2)cnc1C)c1cc(OC(F)(F)F)ccc1F` [Example 252, 5-{2-amino-[1,2,4]triazolo[1,5-a]pyridin-7-yl}-N-{[2-fluoro-5-(trifluoromethoxy)phenyl](deutero)methyl}-2-methylpyridine-3-carboxamide], the IC50 in assay [1] (setting [3]) and in assay [2] (setting [4]) was < 20 nM in each case.

In the case of `Cc1ncc(-c2ccn3nc(N)nc3c2)cc1C(=O)NCc1ccccc1OCC1CCCC1` [Example 39, 5-{2-Amino-[1,2,4]triazolo[1,5-a]pyridin-7-yl}-N-{[2-(cyclopentylmethoxy)phenyl]methyl}-2-methylpyridine-3-carboxamide], the figures for the IC50 in assay [1] (setting [3]) and in assay [2] (setting [5]) were < 20 nM and 20 to 200 nM, respectively.

In the case of `COc1ncc(C(=O)NCc2cc(F)ccc2OC2CCCC2)cc1-c1ccn2nc(N)nc2c1` [Example 27, 5-{2-Amino-[1,2,4]triazolo[1,5-a]pyridin-7-yl}-N-{[2-(cyclopentyloxy)-5-fluorophenyl]methyl}-6-methoxypyridine-3-carboxamide], the IC50 in assay [1] (setting [3]) and in assay [2] (setting [4]) was < 20 nM in each case.

As for `COc1ncc(-c2ccn3nc(N)nc3c2)cc1C(=O)N1CCCC(C(O)c2ccc(F)cc2)C1` (mixture of isomers) [Example 422, (5-(2-amino-[1,2,4]triazolo[1,5-a]pyridin-7-yl)-2-methoxypyridin-3-yl)(3-((4-fluorophenyl)(hydroxy)methyl)piperidin-1-yl)methanone], the IC50 is > 200 nM in assay [1] (x marks IC50 class >200 nM, read-out: RIPK1 HTRF binding >200 nM) and > 200 nM in assay [2] (setting [6]).

As to `COc1ncc(-c2ccn3nc(N)nc3c2)cc1C(=O)NCc1ccccc1Oc1ccc(F)cc1` [Example 110, 5-{2-amino-[1,2,4]triazolo[1,5-a]pyridin-7-yl}-N-{[2-(4-fluorophenoxy)phenyl]methyl}-2-methoxypyridine-3-carboxamide], the IC50 in assay [1] (setting [3]) and in assay [2] (setting [4]) was < 20 nM each time.

For the compound `COc1ncc(-c2ccn3nc(N)nc3c2)cc1C(=O)NCc1ncccc1OC1CCCC1` [Example 141, 5-{2-amino-[1,2,4]triazolo[1,5-a]pyridin-7-yl}-N-{[3-(cyclopentyloxy)pyridin-2-yl]methyl}-2-methoxypyridine-3-carboxamide], the IC50 in assay [1] (setting [3]) is < 20 nM; in assay [2] (setting [5]), 20 to 200 nM.

On to `Cc1ncc(-c2ccn3nc(N)nc3c2)cc1C(=O)NCCc1cccc(OC(F)(F)F)c1` [Example 227, 5-{2-amino-[1,2,4]triazolo[1,5-a]pyridin-7-yl}-2-methyl-N-{2-[3-(trifluoromethoxy)phenyl]ethyl}pyridine-3-carboxamide], for which the IC50 in assay [1] (setting [7]) was 20 to 200 nM; in assay [2] (setting [6]), > 200 nM.

On to `Cc1nc(C)c(-c2ccn3nc(N)nc3c2)cc1C(=O)NCc1cc(C(F)(F)F)ccc1F` [Example 192, 5-{2-amino-[1,2,4]triazolo[1,5-a]pyridin-7-yl}-N-{[2-fluoro-5-(trifluoromethyl)phenyl]methyl}-2,6-dimethylpyridine-3-carboxamide], for which the IC50 in assay [1] (setting [3]) and in assay [2] (setting [4]) was < 20 nM in each case.

Regarding `Nc1nc2cc(-c3cnc(N)c(C(=O)NCc4c(F)cccc4OCC4CC4)c3)ccn2n1` [Example 53, 2-Amino-5-{2-amino-[1,2,4]triazolo[1,5-a]pyridin-7-yl}-N-{[2-(cyclopropylmethoxy)-6-fluorophenyl]methyl}pyridine-3-carboxamide], the IC50 was < 20 nM in assay [1] (setting [3]) and 20 to 200 nM in assay [2] (setting [5]).

Take `Cc1ncc(-c2ccn3nc(N)nc3c2)cc1C(=O)NCc1cc(F)cc(F)c1OC1CCCOC1` (centres unmarked) [Example 314, 5-(2-amino-[1,2,4]triazolo[1,5-a]pyridin-7-yl)-N-(3,5-difluoro-2-((tetrahydro-2H-pyran-3-yl)oxy)benzyl)-2-methylnicotinamide]: the IC50 in assay [1] (setting [7]) and in assay [2] (setting [5]) was 20 to 200 nM in each case.

In the case of `Cc1ncc(C(=O)NCc2cc(F)cc(F)c2OCC2CC2)cc1-c1ccn2nc(N)nc2c1` [Example 260, 5-{2-amino-[1,2,4]triazolo[1,5-a]pyridin-7-yl}-N-{[2-(cyclopropylmethoxy)-3,5-difluorophenyl]methyl}-6-methylpyridine-3-carboxamide], the IC50 in assay [1] (setting [3]) and in assay [2] (setting [4]) was < 20 nM each time.

As to `COc1ncc(-c2ccn3nc(N)nc3c2)cc1C(=O)NCc1cc(F)ccc1OC(C)C` [Example 31, 5-{2-Amino-[1,2,4]triazolo[1,5-a]pyridin-7-yl}-N-{[5-fluoro-2-(propan-2-yloxy)phenyl]methyl}-2-methoxypyridine-3-carboxamide], the IC50 was < 20 nM in assay [1] (setting [3]) and 20 to 200 nM in assay [2] (setting [5]).

“5-(2-amino-[1,2,4]triazolo[1,5-a]pyridin-7-yl)-6-chloro-N-(2-flouro-5-(trifluoromethoxy)benzyl)nicotinamide [Example 373]”: the IC50 in assay [1] (setting [3]) is < 20 nM; in assay [2] (x marks IC50 class >200 nM, read-out: pMLKL cell activity >200 nM), > 200 nM.

With `COc1ncc(-c2ccn3nc(N)nc3c2)cc1C(=O)N[C@H]1C[C@@H]1c1ccccc1` [Example 100, 5-{2-amino-[1,2,4]triazolo[1,5-a]pyridin-7-yl}-2-methoxy-N-[(1S,2R)-2-phenylcyclopropyl]pyridine-3-carboxamide], the figures for the IC50 in assay [1] (setting [7]) and in assay [2] (setting [6]) were 20 to 200 nM and > 200 nM, respectively.

For the compound `Nc1nc2cc(-c3cnc(N)c(C(=O)NCc4ccccc4Sc4ccccc4CO)c3)ccn2n1` [Example 62, 2-Amino-5-{2-amino-[1,2,4]triazolo[1,5-a]pyridin-7-yl}-N-[(2-{[2-(hydroxymethyl)phenyl]sulfanyl}phenyl)methyl]pyridine-3-carboxamide], the IC50 in assay [1] (setting [3]) was < 20 nM; in assay [2] (setting [5]), 20 to 200 nM.

Consider `COc1ncc(-c2ccn3nc(N)nc3c2)cc1C(=O)NCc1cccnc1OC1CCCC1` [Example 135, 5-{2-amino-[1,2,4]triazolo[1,5-a]pyridin-7-yl}-N-{[2-(cyclopentyloxy)pyridin-3-yl]methyl}-2-methoxypyridine-3-carboxamide], for which the IC50 in assay [1] (setting [3]) and in assay [2] (setting [4]) was < 20 nM in each case.

In the case of `CC(CCNC(=O)c1cc(-c2ccn3nc(N)nc3c2)cnc1N(C)C)c1ccccc1` (centres unmarked) [Example 64, 5-{2-Amino-[1,2,4]triazolo[1,5-a]pyridin-7-yl}-2-(dimethylamino)-N-(3-phenylbutyl)pyridine-3-carboxamide], the IC50 in assay [1] (setting [7]) and in assay [2] (setting [5]) was 20 to 200 nM in each case.

`COc1ncc(-c2ccn3nc(N)nc3c2)cc1C(=O)N1CCCC(Cc2ccc(C)cc2)C1` (centres unmarked) [Example 121, 7-(6-methoxy-5-{3-[(4-methylphenyl)methyl]piperidine-1-carbonyl}pyridin-3-yl)-[1,2,4]triazolo[1,5-a]pyridin-2-amine]: the IC50 in assay [1] (setting [7]) and in assay [2] (setting [5]) was 20 to 200 nM each time.
